Measured values as given in patent US12114987B2, “Perception loss detection” (OXFORD UNIVERSITY INNOVATION LIMITED, priority 2012, dated 2024).

Test system: slow wave oscillations in the scalp electroencephalogram
Description: Multiple electrodes, including Magnetic Resonance (hereinafter “MR”) compatible 32 channel electroencephalography (hereinafter “EEG”) caps (BrainCap MR, Easycap GmbH, Herrsching, Germany) are used in the illustrated example for EEG acquisition.
Amplifiers are connected in the illustrated example using MR-safe fibre optic cables to a universal serial bus (USB) adaptor and then to a laptop computer (or other recording and EEG processing medium), which includes the processor 18 and the database 19. The laptop simultaneously records the timings of fMRI volumes (gradient onset markers), stimuli and button presses. For the paradigm in FIG. 5, samples of the electrical signals are acquired at 5000 Hz and initially referenced to channel CPz. The amplification hardware imposes a highpass filter of 0.1 Hz and a lowpass filter of 250 Hz on acquisition. The acquisition software applies a highpass filter of 0.5 Hz and a lowpass filter of 70 Hz as well as a notch filter of 50 Hz. […]
For time-frequency analysis, the frequency power spectrum over time within the 0.5-30 Hz range is calculated using a multitaper spectral analysis (using Chronux®) with window size=3 s and step size=4s. Phasic changes in EEG absolute and relative power in the specific frequency bands of interest, i.e. beta (15-30 Hz), alpha (9-14 Hz), theta (4-8 Hz) and slow wave (0.5-1.5 Hz) bands, are calculated. […]

Structure (SMILES): CC(C)c1cccc(C(C)C)c1O [propofol]
- peak absolute power of slow wave oscillations (0.5-1.5 Hz band), range between subjects (16 subjects, gradual propofol administration, peak propofol level 4.0 mcg ml−1, scalp EEG): 10.84-83.78 μV2
- activity of slow wave oscillations in the scalp electroencephalogram with increasing doses (after the human has lost verbal responsiveness, increasing doses of propofol): reaches a maximum or saturation point
